The values that follow come from patent publication US7919498B2, “Substituted pyrazolo[3,4-d]pyrimidines as PI3K inhibitors” (Amgen Inc., priority 2007, dated 2011).

T1 sequence (O00329 whole entry): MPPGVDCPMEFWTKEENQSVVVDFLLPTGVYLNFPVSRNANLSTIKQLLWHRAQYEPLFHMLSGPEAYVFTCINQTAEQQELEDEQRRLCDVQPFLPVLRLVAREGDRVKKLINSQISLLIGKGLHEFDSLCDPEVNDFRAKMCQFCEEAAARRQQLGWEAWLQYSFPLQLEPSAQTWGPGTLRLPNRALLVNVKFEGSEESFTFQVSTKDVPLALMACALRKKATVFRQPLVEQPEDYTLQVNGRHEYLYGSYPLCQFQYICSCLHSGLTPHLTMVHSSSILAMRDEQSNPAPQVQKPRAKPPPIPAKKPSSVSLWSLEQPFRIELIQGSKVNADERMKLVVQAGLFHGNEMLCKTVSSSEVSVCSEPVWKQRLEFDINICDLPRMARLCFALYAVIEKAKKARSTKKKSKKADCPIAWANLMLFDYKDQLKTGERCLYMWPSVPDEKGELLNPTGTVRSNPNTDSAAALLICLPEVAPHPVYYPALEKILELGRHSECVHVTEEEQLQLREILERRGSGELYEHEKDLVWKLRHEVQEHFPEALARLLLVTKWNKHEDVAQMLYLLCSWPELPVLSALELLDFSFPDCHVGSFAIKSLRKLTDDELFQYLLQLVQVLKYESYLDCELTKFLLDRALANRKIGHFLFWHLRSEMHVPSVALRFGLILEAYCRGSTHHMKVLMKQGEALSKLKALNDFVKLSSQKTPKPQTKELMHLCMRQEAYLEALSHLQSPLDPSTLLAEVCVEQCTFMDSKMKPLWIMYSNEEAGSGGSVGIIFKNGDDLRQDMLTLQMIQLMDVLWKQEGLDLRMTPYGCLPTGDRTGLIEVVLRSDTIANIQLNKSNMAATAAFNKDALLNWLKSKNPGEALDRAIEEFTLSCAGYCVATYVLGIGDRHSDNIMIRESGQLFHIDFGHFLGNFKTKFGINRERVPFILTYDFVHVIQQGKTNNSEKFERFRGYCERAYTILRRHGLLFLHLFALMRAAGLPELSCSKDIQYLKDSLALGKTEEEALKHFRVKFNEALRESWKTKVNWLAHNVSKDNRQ
T1 sequence (P27986 whole entry partner): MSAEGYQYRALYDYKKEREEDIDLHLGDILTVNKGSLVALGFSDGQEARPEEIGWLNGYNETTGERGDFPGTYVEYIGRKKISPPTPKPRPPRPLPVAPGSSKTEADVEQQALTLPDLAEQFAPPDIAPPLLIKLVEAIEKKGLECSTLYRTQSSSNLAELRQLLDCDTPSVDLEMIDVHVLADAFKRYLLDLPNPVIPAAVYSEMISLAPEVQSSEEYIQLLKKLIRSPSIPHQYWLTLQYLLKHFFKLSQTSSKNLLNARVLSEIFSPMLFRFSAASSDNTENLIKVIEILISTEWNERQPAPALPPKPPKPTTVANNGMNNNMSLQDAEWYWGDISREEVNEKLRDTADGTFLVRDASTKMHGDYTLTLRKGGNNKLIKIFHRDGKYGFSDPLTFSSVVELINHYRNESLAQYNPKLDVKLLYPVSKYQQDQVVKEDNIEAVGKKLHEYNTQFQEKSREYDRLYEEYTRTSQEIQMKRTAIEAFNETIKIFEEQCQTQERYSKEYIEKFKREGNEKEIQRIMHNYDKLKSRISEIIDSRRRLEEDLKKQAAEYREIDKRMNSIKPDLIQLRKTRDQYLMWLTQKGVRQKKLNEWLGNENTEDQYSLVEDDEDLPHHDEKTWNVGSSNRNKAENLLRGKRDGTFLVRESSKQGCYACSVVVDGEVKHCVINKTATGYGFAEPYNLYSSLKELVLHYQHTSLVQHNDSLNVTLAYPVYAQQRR

The first test concerns human B cells. Nature of the test: Human B cells proliferation stimulated by anti-IgM. The following applies: B-cell; anti-Human IgM + CD40L-LZ, 72 h, 3H thymidine. The format is cell-based. On the procedure: Human B Cells Proliferation Stimulate by Anti-IgM
Isolate PBMCs from Leukopac or from human fresh blood. Isolate human B cells by using Miltenyi protocol and B cell isolation kit II.—human B cells were Purified by using AutoMacs.column.
Activation of Human B Cells
Use 96 well Flat bottom plate, plate 50000/well purified B cells in B cell proliferation medium (DMEM+5% FCS, 10 mM Hepes, 50 μM 2-mercaptoethanol); 150 μL medium contain 250 ng/mL CD40L-LZ recombinant protein (Amgen) and 2 μg/mL anti-Human IgM antibody (Jackson ImmunoReseach Lab.# 109-006-129), mixed with 50 μL B cell medium containing PI3K inhibitors and incubate 72 h at 37° C. incubator. After 72 h, pulse labeling B cells with 0.5-1 uCi/well ^3H thymidine for overnight ˜18 h, and harvest cell using TOM harvester.
One may read the IC50 as the concentration that gives 50% inhibition. With `Nc1ncnc2c1c(I)nn2Cc1nc2cccc(F)c2nc1-c1ccccc1Cl` [1-((3-(2-Chlorophenyl)-5-fluoroquinoxalin-2-yl)methyl)-3-iodo-1H-pyrazolo[3,4-d]pyrimidin-4-amine], the IC50 amounted to 554 nM. Still for that read-out and setting: for `Nc1ncnc2c1c(I)nn2Cc1nc2c(F)cccc2nc1-c1ccccc1Cl` [1-((3-(2-Chlorophenyl)-8-fluoroquinoxalin-2-yl)methyl)-3-iodo-1H-pyrazolo[3,4-d]pyrimidin-4-amine] the value was 818 nM. `Cc1cccc2nc(Cn3nc(-c4cnn(C)c4)c4c(N)ncnc43)c(-c3ccccc3Cl)nc12` [1-((3-(2-chlorophenyl)-5-methylquinoxalin-2-yl)methyl)-3-(1-methyl-1H-pyrazol-4-yl)-1H-pyrazolo[3,4-d]pyrimidin-4-amine]: the IC50 stood at 37 nM. The same measure, in the same setting: for `Cc1cccc2nc(-c3ccccc3Cl)c(Cn3nc(-c4cnn(C)c4)c4c(N)ncnc43)nc12` [1-((3-(2-chlorophenyl)-8-methylquinoxalin-2-yl)methyl)-3-(1-methyl-1H-pyrazol-4-yl)-1H-pyrazolo[3,4-d]pyrimidin-4-amine] the value was 19.8 nM; for `Nc1ncnc2c1c(-c1cn[nH]c1)nn2Cc1cc2cccc(Cl)c2nc1-c1ccccc1F` [1-((8-chloro-2-(2-fluorophenyl)-3-quinolinyl)methyl)-3-(1H-pyrazol-4-yl)-1H-pyrazolo[3,4-d]pyrimidin-4-amine], 18.2 nM; for `Cc1cccc2nc(Cn3nc(I)c4c(N)ncnc43)c(-c3cccc(F)c3)c(=O)n12` [2-((4-amino-3-iodo-1H-pyrazolo[3,4-d]pyrimidin-1-yl)-methyl)-3-(3-fluorophenyl)-6-methyl-4H-pyrido[1,2-a]pyrimidin-4-one], 512 nM. The same measure, in the same setting: to `Cc1cccc2nc(Cn3nc(C#N)c4c(N)ncnc43)c(-c3ccccc3Cl)nc12` [4-Amino-1-((3-(2-chlorophenyl)-5-methylquinoxalin-2-yl)methyl)-1H-pyrazolo[3,4-d]pyrimidine-3-carbonitrile] belongs 1.99 nM; to `Cc1cccc2nc(-c3ccccc3Cl)c(Cn3nc(C#N)c4c(N)ncnc43)nc12` [4-Amino-1-((3-(2-chlorophenyl)-8-methylquinoxalin-2-yl)methyl)-1H-pyrazolo[3,4-d]pyrimidine-3-carbonitrile], 83.8 nM.

Another test has as its target T1, PI3Kδ (Homo sapiens, UniProt O00329).
T1 construct: Full length p110 subunits of PI3k α, β and δ, N-terminally labeled with polyHis tag; polyHis (N); made in house; host or cells: Sf9 insect cells (baculovirus)
The test can be described thus: In vitro enzyme assay of PI3Kδ (residual ATP bioluminescence).
Details: not given
Format: biochemical. The method, then:
Recombinant Expression of PI3Ks
Full length p110 subunits of PI3k α, β and δ, N-terminally labeled with polyHis tag, were coexpressed with p85 with Baculo virus expression vectors in sf9 insect cells. P110/p85 heterodimers were purified by sequential Ni-NTA, Q-HP, Superdex-100 chromatography. Purified α, β and δ isozymes were stored at −20° C. in 20 mM Tris, pH 8, 0.2M NaCl, 50% glycerol, 5 mM DTT, 2 mM Na cholate. Truncated PI3Kγ, residues 114-1102, N-terminally labeled with polyHis tag, was expressed with Baculo virus in Hi5 insect cells. The γ isozyme was purified by sequential Ni-NTA, Superdex-200, Q-HP chromatography. The γ isozyme was stored frozen at −80° C. in NaH2PO4, pH 8, 0.2M NaCl, 1% ethylene glycol, 2 mM β-mercaptoethanol.
Assays were performed in 25 μL with the above final concentrations of components in white polyproplyene plates (Costar 3355). Phospatidyl inositol phosphoacceptor, PtdIns(4,5)P2 P4508, was from Echelon Biosciences. The ATPase activity of the alpha and gamma isozymes was not greatly stimulated by PtdIns(4,5)P2 under these conditions and was therefore omitted from the assay of these isozymes. Test compounds were dissolved in dimethyl sulfoxide and diluted with three-fold serial dilutions. The compound in DMSO (1 μL) was added per test well, and the inhibition relative to reactions containing no compound, with and without enzyme was determined. After assay incubation at room temperature, the reaction was stopped and residual ATP determined by addition of an equal volume of a commercial ATP bioluminescence kit (Perkin Elmer EasyLite) according to the manufacturer's instructions, and detected using a AnalystGT luminometer.
`Cc1cccc2cc(Cn3cnc4c(N)ncnc43)c(-c3ccccc3Cl)nc12` [Example 1, 9-((2-(2-Chlorophenyl)-8-methylquinolin-3-yl)methyl)-9H-purin-6-amine] gave an IC50 of 2130 nM. The molecule `Cc1cccc2cc(Cn3ccc(=O)c4c(N)ncnc43)c(-c3ccccc3Cl)nc12` [Example 2, 4-Amino-8-((2-(2-chlorophenyl)-8-methylquinolin-3-yl)methyl)pyrido[2,3-d]pyrimidin-5(8H)-one] returned an IC50 of 58 nM.

`Cc1ccccc1-c1nc2c(C)cccc2cc1Cn1nc(I)c2c(N)ncnc21` [Example 4, 3-Iodo-1-((8-methyl-2-o-tolylquinolin-3-yl)methyl)-1H-pyrazolo[3,4-d]pyrimidin-4-amine] gave an IC50 of 6 nM. Still for that read-out and setting: for `Nc1ncnc2c1c(I)nn2Cc1cc2cccc(Cl)c2nc1-c1ccccc1Cl` [Example 5, 1-((8-Chloro-2-(2-chlorophenyl)quinolin-3-yl)methyl)-3-iodo-1H-pyrazolo[3,4-d]pyrimidin-4-amine] the value was 14 nM; for `Nc1ncnc2c1c(I)nn2Cc1cc2cccc(Cl)c2nc1-c1ccccc1C(F)(F)F` [Example 6, 1-((8-Chloro-2-(2-(trifluoromethyl)phenyl)quinolin-3-yl)methyl)-3-iodo-1H-pyrazolo[3,4-d]pyrimidin-4-amine], 7 nM. Same read-out and setting: for `Cc1cccc2cc(Cn3nc(I)c4c(N)ncnc43)c(-c3ccccc3F)nc12` [Example 7, 1-((2-(2-Fluorophenyl)-8-methylquinolin-3-yl)methyl)-3-iodo-1H-pyrazolo[3,4-d]pyrimidin-4-amine] the value was 4 nM. Same read-out and setting: to `Cc1cccc2cc(Cn3nc(-c4cccc(O)c4)c4c(N)ncnc43)c(-c3ccccc3C(F)(F)F)nc12` [Example 8, 3-(4-Amino-1-((8-methyl-2-(2-(trifluoromethyl)phenyl)quinolin-3-yl)methyl)-1H-pyrazolo[3,4-d]pyrimidin-3-yl)phenol] belongs 8 nM; to `Nc1ncnc2c1c(-c1cccc(O)c1)nn2Cc1cc2cccc(Cl)c2nc1-c1ccccc1Cl` [Example 10, 3-(4-Amino-1-((8-chloro-2-(2-chlorophenyl)quinolin-3-yl)methyl)-1H-pyrazolo[3,4-d]pyrimidin-3-yl)phenol], 14 nM.

`Cc1cccc2cc(Cn3nc(C)c4c(N)ncnc43)c(-c3ccccc3Cl)nc12` [Example 11, 1-((2-(2-Chlorophenyl)-8-methylquinolin-3-yl)methyl)-3-methyl-1H-pyrazolo[3,4-d]pyrimidin-4-amine]: half-maximal inhibition (IC50) was put at 137 nM. On to `Cc1cccc2cc(Cn3nc(-c4cn[nH]c4)c4c(N)ncnc43)c(-c3ccccc3C(F)(F)F)nc12` [Example 12, 1-((8-Methyl-2-(2-(trifluoromethyl)phenyl)quinolin-3-yl)methyl)-3-(1H-pyrazol-4-yl)-1H-pyrazolo[3,4-d]pyrimidin-4-amine], for which the IC50 amounted to 8 nM. On the same count and under the same terms, to `Cc1cccc2cc(Cn3nc(C4CC4)c4c(N)ncnc43)c(-c3ccccc3C(F)(F)F)nc12` [Example 13, 3-Cyclopropyl-1-((8-methyl-2-(2-(trifluoromethyl)phenyl)quinolin-3-yl)methyl)-1H-pyrazolo[3,4-d]pyrimidin-4-amine] belongs 149 nM. Same read-out and setting: for `Cc1cccc2cc(Cn3nc(C#CC(C)(C)O)c4c(N)ncnc43)c(-c3ccccc3C(F)(F)F)nc12` [Example 14, 4-(4-Amino-1-((8-methyl-2-(2-(trifluoromethyl)phenyl)quinolin-3-yl)methyl)-1H-pyrazolo[3,4-d]pyrimidin-3-yl)-2-methylbut-3-yn-2-ol] the value was 116 nM. The same measure, in the same setting: to `Cc1cccc2nc(-c3ccccc3Cl)c(Cn3nc(I)c4c(N)ncnc43)nc12` [Example 15, 1-((3-(2-Chlorophenyl)-8-methylquinoxalin-2-yl)methyl)-3-iodo-1H-pyrazolo[3,4-d]pyrimidin-4-amine] belongs 38 nM.

In turn, `Cc1cccc2nc(Cn3nc(I)c4c(N)ncnc43)c(-c3ccccc3Cl)nc12` [Example 16, 1-((3-(2-Chlorophenyl)-5-methylquinoxalin-2-yl)methyl)-3-iodo-1H-pyrazolo[3,4-d]pyrimidin-4-amine] registered an IC50 of 21 nM. On the same count and under the same terms, to `Cc1cccc2nc(-c3ccccc3Cl)c(Cn3nc(-c4cn[nH]c4)c4c(N)ncnc43)nc12` [Example 17, 1-((3-(2-Chlorophenyl)-8-methylquinoxalin-2-yl)methyl)-3-(1H-pyrazol-4-yl)-1H-pyrazolo[3,4-d]pyrimidin-4-amine] belongs 18 nM; to `Cc1cccc2nc(Cn3nc(-c4cn[nH]c4)c4c(N)ncnc43)c(-c3ccccc3Cl)nc12` [Example 18, 1-((3-(2-Chlorophenyl)-5-methylquinoxalin-2-yl)methyl)-3-(1H-pyrazol-4-yl)-1H-pyrazolo[3,4-d]pyrimidin-4-amine], 30 nM; to `Cc1cccc2cc(Cn3ccc4c(N)ncnc43)c(-c3ccccc3Cl)nc12` [Example 19, 7-((2-(2-Chlorophenyl)-8-methylquinolin-3-yl)methyl)-7H-pyrrolo[2,3-d]pyrimidin-4-amine], 1970 nM. Still for that read-out and setting: for `Cc1cccc2cc(Cn3cc(Cl)c4c(N)ncnc43)c(-c3ccccc3Cl)nc12` [Example 20, 5-Chloro-7-((2-(2-chlorophenyl)-8-methylquinolin-3-yl)methyl)-7H-pyrrolo[2,3-d]pyrimidin-4-amine] the value was 20 nM; for `COc1ccccc1-n1c(Cn2ccc(=O)c3c(N)ncnc32)nc2cccc(Cl)c2c1=O` [Example 21, 4-Amino-8-((5-chloro-3-(2-methoxyphenyl)-4-oxo-3,4-dihydroquinazolin-2-yl)methyl)pyrido[2,3-d]pyrimidin-5(8H)-one], 13 nM. Still for that read-out and setting: for `Nc1ncnc2c1c(=O)ccn2Cc1cc2cccc(Cl)c2nc1-c1ccccc1Cl` [Example 22, 4-Amino-8-((8-chloro-2-(2-chlorophenyl)quinolin-3-yl)methyl)pyrido[2,3-d]pyrimidin-5(8H)-one] the value was 33 nM.
